Results taken from patent US20250346592A1 (Celgene Corporation, priority 2022, published 2025).

Target: hPAD4 enzyme (Homo sapiens (Human), UniProt Q9UM07)
Assay: RFMS2 assay (RapidFire mass spectrometry, TSTGGRQGSHH peptide substrate)
Format: biochemical
Details: 35 nM recombinant human PAD4, 500 μM TSTGGRQGSHH peptide, 30 minutes at room temperature; read-out: RFMS 2 IC50
Experimental: Stock compounds were dissolved and stored in 100% DMSO. Compound solutions were prepared via serial dilution at 3-fold intervals in DMSO with top compound concentration at 20 μM in each assay. 0.25 μl of compound solution was transferred from the compound plate to the assay plate by using an acoustic dispenser.
• Total reaction volume: 25 μl • Assay buffer: […] pH 7.4, 200 mM NaCl, 2 mM CaCl2, 5 mM DTT • 35 nM recombinant human PAD4 • 500 μM TSTGGRQGSHH peptide • 1.2% DMSO • Stop solution: 10% formic acid
Reaction mixtures were incubated at room temperature for 30 minutes. 10 μl each of the reaction mixtures was then mixed with 40 μl of 10% formic acid in a microtiter plate. The plate was frozen at −80° C. before shipping out on dry ice for RapidFire mass spectroscopy analysis.
Thawed samples were loaded onto the Rapid Fire 300 system (Agilent) wherein they were first sipped for 250 ms and then loaded onto a Agilent “C” (C18) cartridge using a mobile phase of water containing 0.09% formic acid/0.01% trifluoroacetic acid for 3000 ms desalting flowing at a rate of 1.5 ml/min. Once the samples were loaded and washed, a mobile phase of acetonitrile containing 0.09% formic acid/0.01% trifluoroacetic acid was used to elute the samples directly onto a Sciex API4000 triple quadrupole mass spectrometer for 3000 ms at a flow rate of 1.25 ml/min.
MRM transitions for substrate and product were monitored in positive ESI mode at m/z=562.3/969.7 and m/z=562.8/541.3 respectively. The dwell time for each transition was set at 100 ms, and the ESI voltage was used at 5500 with a source temperature of 650° C. Extracted ion peaks for each transition were integrated using the Rapid Fire Integrator software.
Compounds having an activity designated as “A” provided an IC50≤10 nM; compounds having an activity designated as “B” provided an IC50 11-100 nM; compounds having an activity designated as “C” provided an IC50 101-500 nM; compounds having an activity designated as “D” provided an IC50 501-1000 nM; compounds having an activity designated as “E” provided an IC50>1000 nM.

hPAD4 enzyme, sequence (Q9UM07 whole entry): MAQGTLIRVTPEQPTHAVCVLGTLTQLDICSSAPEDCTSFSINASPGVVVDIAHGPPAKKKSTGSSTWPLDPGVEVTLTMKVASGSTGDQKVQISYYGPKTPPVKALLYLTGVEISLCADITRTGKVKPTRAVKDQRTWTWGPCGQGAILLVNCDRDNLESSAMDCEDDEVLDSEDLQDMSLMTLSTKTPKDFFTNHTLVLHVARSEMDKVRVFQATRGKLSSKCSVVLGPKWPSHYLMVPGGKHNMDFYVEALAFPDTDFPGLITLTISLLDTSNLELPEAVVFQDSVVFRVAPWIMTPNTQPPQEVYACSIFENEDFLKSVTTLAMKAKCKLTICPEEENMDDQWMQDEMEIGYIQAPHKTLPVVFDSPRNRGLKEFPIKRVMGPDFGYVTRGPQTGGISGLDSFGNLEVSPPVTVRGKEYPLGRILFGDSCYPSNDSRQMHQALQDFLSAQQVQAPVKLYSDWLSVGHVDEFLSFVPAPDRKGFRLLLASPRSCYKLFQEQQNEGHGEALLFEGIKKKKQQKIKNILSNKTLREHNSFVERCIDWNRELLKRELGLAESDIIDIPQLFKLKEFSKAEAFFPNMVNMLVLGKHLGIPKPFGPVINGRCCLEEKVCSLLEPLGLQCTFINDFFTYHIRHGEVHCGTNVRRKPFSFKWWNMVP

| IC50 | Compound |
| --- | --- |
| 101 to 500 nM | C[C@@H](N)CN1CCc2cc3c(cc2C1=O)nc(-c1cc2ccc(F)nc2n1CC1CC1)n3C [Example 21, (R)-6-(2-aminopropyl)-2-(1-(cyclopropylmethyl)-6-fluoro-1H-pyrrolo[2,3-b]pyridin-2-yl)-1-methyl-1,6,7,8-tetrahydro-5H-imidazo[4,5-g]soquinolin-5-one] |
| > 1000 nM | C[C@@H](N)CN1CCc2cc3c(cc2C1=O)nc(-c1cc2ccnc(Cl)c2n1CC1CC1)n3C [Example 22, (R)-6-(2-aminopropyl)-2-(7-chloro-1-(cyclopropylmethyl)-1H-pyrrolo[2,3-c]pyridin-2-yl)-1-methyl-1,6,7,8-tetrahydro-5H-imidazo[4,5-g]isoquinolin-5-one] |
| > 1000 nM | C[C@@H](N)CN1CCc2cc3c(cc2C1=O)nc(-c1cc2ccncc2n1CC1CC1)n3C [Example 24, (R)-6-(2-aminopropyl)-2-(1-(cyclopropylmethyl)-1H-pyrrolo[2,3-c]pyridin-2-yl)-1-methyl-1,6,7,8-tetrahydro-5H-imidazo[4,5-g]isoquinolin-5-one] |
| 101 to 500 nM | C[C@@H](N)CN1CCc2cc3c(cc2C1=O)nc(-c1cc2ccc(Cl)cc2n1CC1CC1)n3C [Example 25, (R)-6-(2-aminopropyl)-2-(6-chloro-1-(cyclopropylmethyl)-1H-indol-2-yl)-1-methyl-1,6,7,8-tetrahydro-5H-imidazo[4,5-g]isoquinolin-5-one] |
| > 1000 nM | Cc1ccc2c(c1)cc(-c1nc3cc4c(cc3n1C)CCN(C[C@@H](C)N)C4=O)n2CC1CC1 [Example 26, (R)-6-(2-aminopropyl)-2-(1-(cyclopropylmethyl)-5-methyl-1H-indol-2-yl)-1-methyl-1,6,7,8-tetrahydro-5H-imidazo[4,5-g]isoquinolin-5-one] |
| 101 to 500 nM | Cc1ccc2cc(-c3nc4cc5c(cc4n3C)CCN(C[C@@H](C)N)C5=O)n(CC3CC3)c2c1 [Example 29, (R)-6-(2-aminopropyl)-2-(1-(cyclopropylmethyl)-6-methyl-1H-indol-2-yl)-1-methyl-1,6,7,8-tetrahydro-5H-imidazo[4,5-g]isoquinolin-5-one] |

Continued, molecule first:

| Compound | IC50 |
| --- | --- |
| CC(C)c1cccc2cc(-c3nc4cc5c(cc4n3C)CCN(C[C@@H](C)N)C5=O)n(CC3CC3)c12 [Example 19, (R)-6-(2-aminopropyl)-2-(1-(cyclopropylmethyl)-7-isopropyl-1H-indol-2-yl)-1-methyl-1,6,7,8-tetrahydro-5H-imidazo[4,5-g]isoquinolin-5-one] | 101 to 500 nM |
| C[C@@H](N)CN1CCc2cc3c(cc2C1=O)nc(-c1cc2ccc(C(F)(F)F)cc2n1CC1CC1)n3C [Example 20, (R)-6-(2-aminopropyl)-2-(1-(cyclopropylmethyl)-6-(trifluoromethyl)-1H-indol-2-yl)-1-methyl-1,6,7,8-tetrahydro-5H-imidazo[4,5-g]isoquinolin-5-one] | 101 to 500 nM |
| Cc1c(-c2nc3cc4c(cc3n2C)CCN(C[C@@H](C)N)C4=O)n(CC2CC2)c2ccccc12 [Example 23, (R)-6-(2-aminopropyl)-2-(1-(cyclopropylmethyl)-3-methyl-1H-indol-2-yl)-1-methyl-1,6,7,8-tetrahydro-5H-imidazo[4,5-g]isoquinolin-5-one] | > 1000 nM |
| C[C@@H](N)CN1CCc2cc3c(cc2C1=O)nc(-c1cc2cccc(C#N)c2n1CC1CC1)n3C [Example 27, (R)-2-(6-(2-aminopropyl)-1-methyl-5-oxo-5,6,7,8-tetrahydro-1H-imidazo[4,5-g]isoquinolin-2-yl)-1-(cyclopropylmethyl)-1H-indole-7-carbonitrile] | 501 to 1000 nM |
| CCc1cccc2cc(-c3nc4cc5c(cc4n3C)CCN(C[C@@H](C)N)C5=O)n(CC3CC3)c12 [Example 28, (R)-6-(2-aminopropyl)-2-(1-(cyclopropylmethyl)-7-ethyl-1H-indol-2-yl)-1-methyl-1,6,7,8-tetrahydro-5H-imidazo[4,5-g]isoquinolin-5-one] | 101 to 500 nM |
